Experimental data published in patent publication US6737383B1, “Herbicidal oxadiazolidines” (priority 1999, dated 2004).

Legend:
giant foxtail = assay: Test B pre/postemergence giant foxtail; assay type: in vivo, Setaria faberii
How it was run: (§1)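 Test chemicals in a non-phytotoxic solvent mixture with surfactant were sprayed preemergence onto planted seeds and postemergence onto plants 2 to 18 cm tall (1- to 4-leaf stage). After twelve to sixteen days in a greenhouse, injury was visually rated against untreated controls from 0 (no effect) to 10 (complete control).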

smallflower flatsedge = assay: Test B flood test smallflower flatsedge; assay type: in vivo, Cyperus difformis
How it was run: (§2)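 Read-out is a visual response score from 0 (no effect) to 10 (complete control), assigned by comparison with untreated controls. Treatment was applied at the 2-leaf stage, and plants stayed in the greenhouse for twelve to sixteen days before scoring.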

velvetleaf = assay: Test B pre/postemergence velvetleaf; assay type: in vivo, Abutilon theophrasti
How it was run: as §1

blackgrass = assay: Test B pre/postemergence blackgrass; assay type: in vivo, Alopecurus myosuroides
How it was run: as §1

purple nutsedge = assay: Test B pre/postemergence purple nutsedge; assay type: in vivo, Cyperus rotundus
How it was run: as §1

duck salad = assay: Test B flood test duck salad; assay type: in vivo, Heteranthera limosa
How it was run: as §2

wild oat = assay: Test B pre/postemergence wild oat; assay type: in vivo, Avena fatua
How it was run: as §1

soybean = assay: Test B pre/postemergence soybean; assay type: in vivo, Glycine max
How it was run: as §1

morningglory = assay: Test B pre/postemergence morningglory; assay type: in vivo, Ipomoea hederacea
How it was run: as §1

crabgrass = assay: Test B pre/postemergence crabgrass; assay type: in vivo, Digitaria sanguinalis
How it was run: as §1

rice = assay: Test B flood test rice; assay type: in vivo, Oryza sativa
How it was run: as §2

wheat = assay: Test B pre/postemergence wheat; assay type: in vivo, Triticum aestivum
How it was run: as §1

pigweed = assay: Test B pre/postemergence pigweed; assay type: in vivo, Amaranthus retroflexus
How it was run: as §1

surinam grass = assay: Test B pre/postemergence surinam grass; assay type: in vivo, Brachiaria decumbens
How it was run: as §1

corn = assay: Test B pre/postemergence corn; assay type: in vivo, Zea mays
How it was run: as §1

bedstraw = assay: Test B pre/postemergence bedstraw; assay type: in vivo, Galium aparine
How it was run: as §1

[1] = Preemergence, Rate 62 g/ha, scale of 0 to 10 where 0 is no effect and 10 is complete control
[2] = Preemergence, Rate 125 g/ha, 0 is no effect, 10 is complete control
[3] = Preemergence, Rate 250 g/ha, scale 0 to 10, 0 is no effect, 10 is complete control
[4] = Preemergence, Rate 500 g/ha, scale 0 to 10 (0 no effect, 10 complete control)
[5] = Rate 62 g/ha, Postemergence, scale of 0 to 10 where 0 is no effect and 10 is complete control
[6] = Rate 125 g/ha, Postemergence, scale 0 to 10
[7] = Rate 500 g/ha, Postemergence, scale 0 to 10
[8] = Rate 62 g/ha, headed Pre-emergence (flood test species), scale 0 to 10 (0 no effect, 10 complete control)
[9] = Rate 125 g/ha, Pre-emergence, flood test species, scale 0 to 10 where 0 is no effect and 10 is complete control
[10] = Rate 250 g/ha, Pre-emergence, flood-test species, scale 0 to 10, 0 is no effect, 10 is complete control
[11] = Rate 500 g/ha, headed Pre-emergence (flood test species), scale 0 to 10 (0 no effect, 10 complete control)

SMILES: Cc1nc(C)c(Cn2c(=O)on(C(=O)N(c3ccc(F)cc3)C(C)C)c2=O)s1 [Compound 192]
- Giant foxtail plant response rating (giant foxtail; [1]): 8
- Giant foxtail plant response rating (0 to 10 scale) (giant foxtail; [2]): 9
- Giant foxtail plant response rating (giant foxtail; [3]): 10
- Giant foxtail plant response rating (giant foxtail; [4]): 10
- Giant foxtail plant response rating (giant foxtail; [5]): 0
- Giant foxtail plant response rating (giant foxtail; [6]): 0
- Plant response rating (0 to 10; 0 is no effect, 10 is complete control), Giant foxtail (giant foxtail; Rate 250 g/ha, Postemergence): 0
- Giant foxtail plant response rating (giant foxtail; [7]): 1
- S. Flatsedge plant response rating (smallflower flatsedge; [8]): 0
- S. Flatsedge plant response rating (smallflower flatsedge; [9]): 0
- S. Flatsedge plant response rating (smallflower flatsedge; [10]): 0
- S. Flatsedge plant response rating (smallflower flatsedge; Rate 500 g/ha, Pre-emergence, flood test species, scale 0 to 10 (0 no effect, 10 complete control)): 0
- Velvetleaf plant response rating (velvetleaf; [1]): 0
- Velvetleaf plant response rating (velvetleaf; [3]): 5
- Velvetleaf plant response rating (velvetleaf; [4]): 6
- Velvetleaf plant response rating (velvetleaf; [5]): 0
- Velvetleaf plant response rating (velvetleaf; [6]): 2
- Plant response rating (0 to 10; 0 is no effect, 10 is complete control), Velvetleaf (velvetleaf; Rate 250 g/ha, Postemergence): 3
- Blackgrass plant response rating (blackgrass; [1]): 5
- Blackgrass plant response rating (0 to 10 scale) (blackgrass; [2]): 5
- Blackgrass plant response rating (blackgrass; [3]): 6
- Blackgrass plant response rating (blackgrass; [4]): 7
- Blackgrass plant response rating (blackgrass; [5]): 0
- Blackgrass plant response rating (blackgrass; [6]): 0
- Plant response rating (0 to 10; 0 is no effect, 10 is complete control), Blackgrass (blackgrass; Rate 250 g/ha, Postemergence): 0
- Nutsedge plant response rating (purple nutsedge; [1]): 0
- Nutsedge plant response rating (0 to 10 scale) (purple nutsedge; [2]): 0
- Nutsedge plant response rating (purple nutsedge; [5]): 0
- Nutsedge plant response rating (purple nutsedge; [6]): 0
- Plant response rating (0 to 10; 0 is no effect, 10 is complete control), Nutsedge (purple nutsedge; Rate 250 g/ha, Postemergence): 0
- Nutsedge plant response rating (purple nutsedge; [7]): 0
- Ducksalad plant response rating (duck salad; [8]): 0
- Ducksalad plant response rating (duck salad; [9]): 0
- Ducksalad plant response rating (duck salad; [10]): 0
- Plant response rating, Ducksalad (duck salad; [11]): 0
- Wild oats plant response rating (wild oat; [1]): 0
- Wild oats plant response rating (wild oat; [3]): 5
- Wild oats plant response rating (wild oat; [4]): 7
- Wild oats plant response rating (wild oat; [5]): 0
- Wild oats plant response rating (wild oat; [6]): 0
- Plant response rating (0 to 10; 0 is no effect, 10 is complete control), Wild oats (wild oat; Rate 250 g/ha, Postemergence): 0
- Soybean plant response rating (soybean; [1]): 0
- Soybean plant response rating (0 to 10 scale) (soybean; [2]): 0
- Soybean plant response rating (soybean; [3]): 2
- Soybean plant response rating (soybean; [4]): 2
- Soybean plant response rating (soybean; [5]): 3
- Soybean plant response rating (soybean; [6]): 3
- Plant response rating (0 to 10; 0 is no effect, 10 is complete control), Soybean (soybean; Rate 250 g/ha, Postemergence): 3
- Soybean plant response rating (soybean; [7]): 3
- Morningglory plant response rating (morningglory; [1]): 0
- Morningglory plant response rating (0 to 10 scale) (morningglory; [2]): 0
- Morningglory plant response rating (morningglory; [3]): 0
- Morningglory plant response rating (morningglory; [4]): 3
- Morningglory plant response rating (morningglory; [5]): 1
- Morningglory plant response rating (morningglory; [6]): 3
- Plant response rating (0 to 10; 0 is no effect, 10 is complete control), Morningglory (morningglory; Rate 250 g/ha, Postemergence): 6
- Morningglory plant response rating (morningglory; [7]): 6
- Crabgrass plant response rating (crabgrass; [1]): 2
- Crabgrass plant response rating (0 to 10 scale) (crabgrass; [2]): 6
- Crabgrass plant response rating (crabgrass; [3]): 7
- Crabgrass plant response rating (crabgrass; [4]): 9
- Crabgrass plant response rating (crabgrass; [5]): 1
- Crabgrass plant response rating (crabgrass; [6]): 1
- Plant response rating (0 to 10; 0 is no effect, 10 is complete control), Crabgrass (crabgrass; Rate 250 g/ha, Postemergence): 1
- Crabgrass plant response rating (crabgrass; [7]): 2
- Rice plant response rating (rice; [8]): 0
- Rice plant response rating (rice; [9]): 0
- Rice plant response rating (rice; [10]): 0
- Plant response rating, Rice (rice; [11]): 0
- Wheat plant response rating (wheat; [1]): 0
- Wheat plant response rating (wheat; [3]): 0
- Wheat plant response rating (wheat; [4]): 0
- Wheat plant response rating (wheat; [5]): 0
- Wheat plant response rating (wheat; [6]): 0
- Plant response rating (0 to 10; 0 is no effect, 10 is complete control), Wheat (wheat; Rate 250 g/ha, Postemergence): 0
- Redroot pigweed plant response rating (pigweed; [1]): 0
- Redroot pigweed plant response rating (0 to 10 scale) (pigweed; [2]): 2
- Redroot pigweed plant response rating (pigweed; [3]): 5
- Redroot pigweed plant response rating (pigweed; [4]): 9
- Redroot pigweed plant response rating (pigweed; [5]): 0
- Redroot pigweed plant response rating (pigweed; [6]): 1
- Plant response rating (0 to 10; 0 is no effect, 10 is complete control), Redroot pigweed (pigweed; Rate 250 g/ha, Postemergence): 3
- Redroot pigweed plant response rating (pigweed; [7]): 7
- B. signalgrass plant response rating (surinam grass; [1]): 0
- B. signalgrass plant response rating (0 to 10 scale) (surinam grass; [2]): 0
- B. signalgrass plant response rating (surinam grass; [3]): 6
- B. signalgrass plant response rating (surinam grass; [4]): 6
- B. signalgrass plant response rating (surinam grass; [5]): 0
- B. signalgrass plant response rating (surinam grass; Rate 125 g/ha, Postemergence, scale 0 (no effect) to 10 (complete control)): 0
- Plant response rating, B. signalgrass (surinam grass; Rate 250 g/ha, Postemergence, scale 0 to 10, 0 is no effect, 10 is complete control): 0
- B. signalgrass plant response rating (surinam grass; Rate 500 g/ha, Postemergence, scale 0 to 10, 0 no effect, 10 complete control): 2
- Corn plant response rating (corn; [1]): 0
- Corn plant response rating (0 to 10 scale) (corn; [2]): 0
- Corn plant response rating (corn; [3]): 0
- Corn plant response rating (corn; [4]): 4
- Corn plant response rating (corn; [5]): 0
- Corn plant response rating (corn; [6]): 0
- Plant response rating (0 to 10; 0 is no effect, 10 is complete control), Corn (corn; Rate 250 g/ha, Postemergence): 0
- Corn plant response rating (corn; [7]): 0
- Bedstraw plant response rating (bedstraw; [1]): 0
- Bedstraw plant response rating (0 to 10 scale) (bedstraw; [2]): 0
- Bedstraw plant response rating (bedstraw; [3]): 0
- Bedstraw plant response rating (bedstraw; [4]): 0
- Bedstraw plant response rating (bedstraw; [5]): 0
- Bedstraw plant response rating (bedstraw; [6]): 0
- Plant response rating (0 to 10; 0 is no effect, 10 is complete control), Bedstraw (bedstraw; Rate 250 g/ha, Postemergence): 0
- Bedstraw plant response rating (bedstraw; [7]): 0
